Results as given in patent publication US12077503B2, “Substituted cyclic amides and their use as herbicides” (FMC CORPORATION, priority 2015, dated 2024).

Assays:
Assay type in all cases: in vivo
[1] = test system: velvetleaf (Abutilon theophrasti); assay: Test G Post-Emergence Protocol; conditions: Abutilon theophrasti, post-emergence, 312 h, read-out: Velvetleaf damage rating; for pest or weed control at 15.625 g/ha: 15.625 g ai/ha, evaluated after 13 days (100=total damage to plant; 0=no damage to plant); for pest or weed control at 62.5 g/ha: 62.5 g ai/ha; for pest or weed control at 62.5 g/ha / pest or weed control at 250 g/ha: evaluated after 13 days, 100=total damage to plant, 0=no damage to plant; for pest or weed control at 250 g/ha: 250 g ai/ha
In short: (§1)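 Eight days post-sowing, plants received a spray of test compound (acetone/water 50:50, 0.5% Tween 20) at 15.625, 62.5 or 250 g/ha. Glasshouse regime thereafter: 24/16 °C, 14 h light, 65% humidity. Assessment after 13 days on a 0–100 damage scale.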

corn (Zea mays) [2] = assay: Test G Post-Emergence Protocol; conditions: Zea mays, post-emergence, 312 h, read-out: Corn damage rating; for plant injury at 15.625 g/ha: 15.625 g ai/ha, evaluated after 13 days (100=total damage to plant; 0=no damage to plant); for plant injury at 62.5 g/ha: 62.5 g ai/ha; for plant injury at 62.5 g/ha / plant injury at 250 g/ha: evaluated after 13 days, 100=total damage to plant, 0=no damage to plant; for plant injury at 250 g/ha: 250 g ai/ha
In short: as §1

[3] = test system: barnyardgrass (Echinochloa crus-galli); assay: Test G Post-Emergence Protocol; conditions: Echinochloa crus-galli, post-emergence, 312 h, read-out: Barnyardgrass damage rating; for pest or weed control at 15.625 g/ha: 15.625 g ai/ha, evaluated after 13 days (100=total damage to plant; 0=no damage to plant); for pest or weed control at 62.5 g/ha: 62.5 g ai/ha; for pest or weed control at 62.5 g/ha / pest or weed control at 250 g/ha: evaluated after 13 days, 100=total damage to plant, 0=no damage to plant; for pest or weed control at 250 g/ha: 250 g ai/ha
In short: as §1

[4] = test system: redroot pigweed (Amaranthus retroflexus); assay: Test G Post-Emergence Protocol; conditions: Amaranthus retroflexus, post-emergence, 312 h, read-out: Pigweed, Redroot damage rating; for pest or weed control at 15.625 g/ha: 15.625 g ai/ha, evaluated after 13 days (100=total damage to plant; 0=no damage to plant); for pest or weed control at 62.5 g/ha: 62.5 g ai/ha; for pest or weed control at 62.5 g/ha / pest or weed control at 250 g/ha: evaluated after 13 days, 100=total damage to plant, 0=no damage to plant; for pest or weed control at 250 g/ha: 250 g ai/ha
In short: as §1

[5] = test system: ivy-leaved morning glory (Ipomoea hederacea); assay: Test G Post-Emergence Protocol; conditions: Ipomoea, post-emergence, 312 h, read-out: Morningglory, Ivy-leaved damage rating; for pest or weed control at 15.625 g/ha: 15.625 g ai/ha, evaluated after 13 days (100=total damage to plant; 0=no damage to plant); for pest or weed control at 62.5 g/ha: 62.5 g ai/ha; for pest or weed control at 62.5 g/ha / pest or weed control at 250 g/ha: evaluated after 13 days, 100=total damage to plant, 0=no damage to plant; for pest or weed control at 250 g/ha: 250 g ai/ha
In short: as §1

[6] = test system: giant foxtail (Setaria faberi); assay: Test G Post-Emergence Protocol; conditions: Setaria faberi, post-emergence, 312 h, read-out: Foxtail, Giant damage rating; for pest or weed control at 15.625 g/ha: 15.625 g ai/ha, evaluated after 13 days (100=total damage to plant; 0=no damage to plant); for pest or weed control at 62.5 g/ha: 62.5 g ai/ha; for pest or weed control at 62.5 g/ha / pest or weed control at 250 g/ha: evaluated after 13 days, 100=total damage to plant, 0=no damage to plant; for pest or weed control at 250 g/ha: 250 g ai/ha
In short: as §1

[7] = test system: velvetleaf (Abutilon theophrasti); assay: Test G Pre-Emergence Protocol; conditions: Abutilon theophrasti, pre-emergence, 312 h, evaluated after 13 days; for pest or weed control at 15.625 g/ha: 15.625 g ai/ha; for pest or weed control at 15.625 g/ha / pest or weed control at 250 g/ha: read-out: Velvetleaf damage rating (100=total damage to plant; 0=no damage to plant); for pest or weed control at 62.5 g/ha: 62.5 g ai/ha, 100=total damage to plant, 0=no damage to plant, read-out: Velvetleaf damage rating; for pest or weed control at 250 g/ha: 250 g ai/ha
In short: (§2)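 Scores are visual damage ratings from 0 (no damage) to 100 (total plant kill), taken 13 days after treatment. Compound was sprayed one day post-sowing at 15.625, 62.5 or 250 g/ha in 50:50 acetone/water with 0.5% Tween 20.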

corn (Zea mays) [8] = assay: Test G Pre-Emergence Protocol; conditions: Zea mays, pre-emergence, 312 h, evaluated after 13 days; for plant injury at 15.625 g/ha: 15.625 g ai/ha; for plant injury at 15.625 g/ha / plant injury at 250 g/ha: read-out: Corn damage rating (100=total damage to plant; 0=no damage to plant); for plant injury at 62.5 g/ha: 62.5 g ai/ha, 100=total damage to plant, 0=no damage to plant, read-out: Corn damage rating; for plant injury at 250 g/ha: 250 g ai/ha
In short: as §2

[9] = test system: barnyardgrass (Echinochloa crus-galli); assay: Test G Pre-Emergence Protocol; conditions: Echinochloa crus-galli, pre-emergence, 312 h, evaluated after 13 days; for pest or weed control at 15.625 g/ha: 15.625 g ai/ha; for pest or weed control at 15.625 g/ha / pest or weed control at 250 g/ha: read-out: Barnyardgrass damage rating (100=total damage to plant; 0=no damage to plant); for pest or weed control at 62.5 g/ha: 62.5 g ai/ha, 100=total damage to plant, 0=no damage to plant, read-out: Barnyardgrass damage rating; for pest or weed control at 250 g/ha: 250 g ai/ha
In short: as §2

[10] = test system: redroot pigweed (Amaranthus retroflexus); assay: Test G Pre-Emergence Protocol; conditions: Amaranthus retroflexus, pre-emergence, 312 h, evaluated after 13 days; for pest or weed control at 15.625 g/ha: 15.625 g ai/ha; for pest or weed control at 15.625 g/ha / pest or weed control at 250 g/ha: read-out: Pigweed, Redroot damage rating (100=total damage to plant; 0=no damage to plant); for pest or weed control at 62.5 g/ha: 62.5 g ai/ha, 100=total damage to plant, 0=no damage to plant, read-out: Pigweed, Redroot damage rating; for pest or weed control at 250 g/ha: 250 g ai/ha
In short: as §2

[11] = test system: ivy-leaved morning glory (Ipomoea hederacea); assay: Test G Pre-Emergence Protocol; conditions: Ipomoea, pre-emergence, 312 h, evaluated after 13 days; for pest or weed control at 15.625 g/ha: 15.625 g ai/ha; for pest or weed control at 15.625 g/ha / pest or weed control at 250 g/ha: read-out: Morningglory, Ivy-leaved damage rating (100=total damage to plant; 0=no damage to plant); for pest or weed control at 62.5 g/ha: 62.5 g ai/ha, 100=total damage to plant, 0=no damage to plant, read-out: Morningglory, Ivy-leaved damage rating; for pest or weed control at 250 g/ha: 250 g ai/ha
In short: as §2

[12] = test system: giant foxtail (Setaria faberi); assay: Test G Pre-Emergence Protocol; conditions: Setaria faberi, pre-emergence, 312 h, evaluated after 13 days; for pest or weed control at 15.625 g/ha: 15.625 g ai/ha; for pest or weed control at 15.625 g/ha / pest or weed control at 250 g/ha: read-out: Foxtail, Giant damage rating (100=total damage to plant; 0=no damage to plant); for pest or weed control at 62.5 g/ha: 62.5 g ai/ha, 100=total damage to plant, 0=no damage to plant, read-out: Foxtail, Giant damage rating; for pest or weed control at 250 g/ha: 250 g ai/ha
In short: as §2

SMILES	pest or weed control at 15.625 g/ha [1] [%]	pest or weed control at 62.5 g/ha [1] [%]	pest or weed control at 250 g/ha [1] [%]	plant injury at 15.625 g/ha (corn (Zea mays) [2]) [%]	plant injury at 62.5 g/ha (corn (Zea mays) [2]) [%]	plant injury at 250 g/ha (corn (Zea mays) [2]) [%]	pest or weed control at 15.625 g/ha [3] [%]	pest or weed control at 62.5 g/ha [3] [%]	pest or weed control at 250 g/ha [3] [%]	pest or weed control at 15.625 g/ha [4] [%]	pest or weed control at 62.5 g/ha [4] [%]	pest or weed control at 250 g/ha [4] [%]	pest or weed control at 15.625 g/ha [5] [%]	pest or weed control at 62.5 g/ha [5] [%]	pest or weed control at 250 g/ha [5] [%]	pest or weed control at 15.625 g/ha [6] [%]	pest or weed control at 62.5 g/ha [6] [%]	pest or weed control at 250 g/ha [6] [%]	pest or weed control at 15.625 g/ha [7] [%]	pest or weed control at 62.5 g/ha [7] [%]	further results
COc1cc(C2CN(C)C(=O)C2C(=O)Nc2cccc(F)c2F)cc(C)c1C (stereo not drawn) [Compound 1713]	0	0	20	0	50	80	10	80	80	0	0	0	20	60	70	60	80	80	0	0	pest or weed control at 250 g/ha [7]: 0%; plant injury at 15.625 g/ha (corn (Zea mays) [8]): 10%; plant injury at 62.5 g/ha (corn (Zea mays) [8]): 20%; plant injury at 250 g/ha (corn (Zea mays) [8]): 90%; pest or weed control at 15.625 g/ha [9]: 30%; pest or weed control at 62.5 g/ha [9]: 70%; pest or weed control at 250 g/ha [9]: 90%; pest or weed control at 15.625 g/ha [10]: 0%; pest or weed control at 62.5 g/ha [10]: 0%; pest or weed control at 250 g/ha [10]: 0%; pest or weed control at 15.625 g/ha [11]: 0%; pest or weed control at 62.5 g/ha [11]: 0%; pest or weed control at 250 g/ha [11]: 0%; pest or weed control at 15.625 g/ha [12]: 50%; pest or weed control at 62.5 g/ha [12]: 70%; pest or weed control at 250 g/ha [12]: 90%
CON1C[C@@H](c2cccc(C(F)(F)F)c2)[C@H](C(=O)Nc2cccc(F)c2F)C1=O (racemic) [Compound 1763]	0	10	20	20	20	70	40	60	70	0	0	20	30	40	50	60	60	70	0	0	pest or weed control at 250 g/ha [7]: 0%; plant injury at 15.625 g/ha (corn (Zea mays) [8]): 0%; plant injury at 62.5 g/ha (corn (Zea mays) [8]): 50%; plant injury at 250 g/ha (corn (Zea mays) [8]): 80%; pest or weed control at 15.625 g/ha [9]: 20%; pest or weed control at 62.5 g/ha [9]: 60%; pest or weed control at 250 g/ha [9]: 80%; pest or weed control at 15.625 g/ha [10]: 0%; pest or weed control at 62.5 g/ha [10]: 0%; pest or weed control at 250 g/ha [10]: 0%; pest or weed control at 15.625 g/ha [11]: 0%; pest or weed control at 62.5 g/ha [11]: 0%; pest or weed control at 250 g/ha [11]: 20%; pest or weed control at 15.625 g/ha [12]: 80%; pest or weed control at 62.5 g/ha [12]: 90%; pest or weed control at 250 g/ha [12]: 90%
